This note sets out measurements from patent publication US10092547B2, “Substituted aliphanes, cyclophanes, heteraphanes, heterophanes, hetero- heteraphanes and metallocenes useful for treating HCV infections” (priority 2011, dated 2018).

One test has as its system HCV replicon (NS5A1b). Description: microbe, parasite or virus in culture. In kind it is cell-based. The conditions noted are these: Hepatitis C virus, 72 h, HCV replicon-containing cells, three days. As for the experimental part: (§1) Compounds claimed herein are tested for the ability to inhibit viral replication of the Hepatitis C replicon in cultured cells in which the HCV replicon construct has been incorporated. The HCV replicon system was described by Bartenschlager, et. al (Science, 285, pp. 110-113 (1999)). The replicon system is predictive of in vivo anti-HCV activity; compounds that are active in humans uniformly evidence activity in the replicon assay.
(§2) In this assay HCV replicon containing cells are treated with different concentrations of the test compound to ascertain the ability of the test compound to suppress replication of the HCV replicon. As a positive control, HCV replicon-containing cells are treated with different concentrations of interferon alpha, a known inhibitor of HCV replication. The replicon assay system includes Neomycin Phosphotransferase (NPT) as a component of the replicon itself in order to detect the transcription of replicon gene products in the host cell. Cells in which the HCV replicon is actively replicating have high levels of NPT; the level of NPT is proportional to HCV replication. […] The NPT level of each sample is measured using a captured ELISA.
(§3) A protocol for testing compounds for the ability to inhibit viral replication of the Hepatitis C replicon cultured cells in which the replicon construct has been incorporated, follows.
(§4) The HCV replicon contains, 5′-3′, the HCV-IRES, the neomycin phosphotransferase (neo) gene, the IRES of encephalomyocarditis virus, which directs translation of HCV sequences NS3 to NS5B, and the 3′-NTR. The sequence of the HCV replicon has been deposited in GenBank (Accession no. AJ242652).
(§5) The replicon is transfected into Huh-7 cells using standard methods such as electroporation.
(§6) The equipment and materials include, but are not limited to, Huh-7 HCV replicon-containing cells, maintenance media (DMEM (Dulbecco's modified Eagle media) supplemented with 10% FBS, L-glutamine, non-essential amino acids, penicillin (100 units/ml), streptomycin (100 micrograms/ml), and 500 micrograms/ml of Geneticin (G418), screening media (DMEM supplemented with 10% FBS, L-glutamine, non-essential amino acids, penicillin (100 units/ml) and streptomycin (100 micrograms/ml), 96 well tissue culture plates (flat bottom), 96 well plates (U bottom for drug dilution), Interferon alpha for positive control, fixation reagent (such as methanol: acetone), primary antibody (rabbit anti-NPTII), secondary antibody: Eu-N1 1, and enhancement solution.
(§7) HCV replicon-containing cells support high levels of viral RNA replicon replication when their density is suitable. Over-confluency causes decreased viral RNA replication. Therefore, cells must be kept growing in log phase in the presence of 500 micrograms/ml of G418. Generally, cells should be passed twice a week at 1:4-6 dilution. Cell maintenance is conducted as follows:
(§8) HCV replicon-containing cells are examined under a microscope to ensure that cells growing well. Cells are rinsed once with PBS and 2 ml trypsin is added. The cell/trypsin mixture is incubated at 37° C. in a CO2 incubator for 3-5 minutes. After incubation 10 ml of complete media is added to stop the trypsinization reaction. Cells are blown gently, put into a 15 ml tube, and spun at 1200 rpm for 4 minutes. The trypsin/medium solution is removed. Medium (5 ml) is added and the cells are mixed carefully. The cells are counted.
(§9) The cells are then seeded onto 96-well plates at a density of 6000-7500 cells/100 microliters/well (6-7.5×10^5 cells/10 ml/plate). The plates are then incubated at 37° C. in a 5% CO2 incubator.
(§10) Cells are examined under a microscope approximated 24 hours after seeding and prior to adding drugs. If counting and dilution were performed correctly, cells are 60-70% confluent and nearly all cells should attach and spread evenly in the well.
(§11) HCV replicon-containing cells are rinsed with once PBS once; 2 mls of trypsin are then added. Cells are incubated at 37° C. in a 5% CO2 incubator for 3-5 minutes. […]

For test [1], the system named is HCV replicon (NS5A1b) in Huh-7 cells. In words: microbe, parasite or virus in culture. Type of test: cell-based. The conditions noted are these: Hepatitis C virus, 72 h; NS5A1b; HCV replicon-containing Huh-7 cells, three days; read-out: EC50 (μM) NS5A1b. On the procedure: as §1, §2, §3, §4, §5, §6, §7, §8, §9, §10, §11

The structures appear in SMILES notation.

In the case of `COC(=O)N[C@H](C(=O)N1C2CCC(C2)[C@H]1c1nc2cc(-c3cc4ccc3CCc3ccc(c(-c5ccc6[nH]c([C@@H]7C8CCC(C8)N7C(=O)[C@@H](NC(=O)OC)C(C)C)nc6c5)c3)CC4)ccc2[nH]1)C(C)C` [Compound 42], the EC50 with HCV replicon (NS5A1b) was 0.0044 µM; in test [1], under 3.2 nM.

For `COC(=O)N[C@H](C(=O)N1C[C@H](F)C[C@H]1c1nc2cc(-c3cc4ccc3CCc3ccc(c(-c5ccc6[nH]c([C@@H]7C[C@@H](F)CN7C(=O)[C@@H](NC(=O)OC)C(C)C)nc6c5)c3)CC4)ccc2[nH]1)C(C)C` [Compound 87], the concentration for a half-maximal effect (EC50) in the test on HCV replicon (NS5A1b) is 0.0184 µM; in test [1], 6.53 nM.

For `COC(=O)N[C@@H](CCSC)C(=O)N1C[C@H](F)C[C@H]1c1nc2cc(-c3cc4ccc3CCc3ccc(c(-c5ccc6[nH]c([C@@H]7C[C@@H](F)CN7C(=O)[C@H](CCSC)NC(=O)OC)nc6c5)c3)CC4)ccc2[nH]1` [Compound 88], the EC50 in the test with HCV replicon (NS5A1b) came out at 0.0618 µM; in test [1] it was 6.43 nM.

For the compound `CC[C@H](C)[C@H](NC(=O)OC)C(=O)N1[C@H](c2nc3cc(-c4cc5ccc4CCc4ccc(c(-c6ccc7[nH]c([C@@H]8C[C@@H]9CCCC[C@@H]9N8C(=O)[C@@H](NC(=O)OC)[C@@H](C)CC)nc7c6)c4)CC5)ccc3[nH]2)C[C@@H]2CCCC[C@@H]21` [Compound 102], the concentration for a half-maximal effect (EC50) in the test with HCV replicon (NS5A1b) worked out at 0.0358 µM; in test [1], 11.9 nM.

In the case of `CC[C@H](C)[C@H](NC(=O)OC)C(=O)N1CCC[C@H]1c1nc2cc(-c3cc4ccc3CCc3ccc(c(-c5ccc6[nH]c([C@@H]7CCCN7C(=O)[C@@H](NC(=O)OC)[C@@H](C)CC)nc6c5)c3)CC4)ccc2[nH]1` [Compound 103], the EC50 in the test with HCV replicon (NS5A1b) was 0.47 µM; in test [1] it was under 3.17 nM.

As to `COC(=O)N[C@H](C(=O)N1CCC[C@H]1c1nc2cc(-c3cc4ccc3CCc3ccc(c(-c5ccc6[nH]c([C@@H]7CCCN7C(=O)[C@@H](NC(=O)OC)[C@@H](C)OC)nc6c5)c3)CC4)ccc2[nH]1)[C@@H](C)OC` [Compound 109], the concentration for a half-maximal effect (EC50) amounted to 0.0118 µM in the test on HCV replicon (NS5A1b) and 8.83 nM in test [1].

Take `COC(=O)N[C@H](C(=O)N1[C@H](c2nc3cc(-c4cc5ccc4CCc4ccc(c(-c6ccc7[nH]c([C@@H]8C[C@@H]9CCCC[C@@H]9N8C(=O)[C@@H](NC(=O)OC)[C@@H](C)O)nc7c6)c4)CC5)ccc3[nH]2)C[C@@H]2CCCC[C@@H]21)[C@@H](C)O` [Compound 128]: in test [1], the EC50 amounted to 0.008 nM.

For the compound `COC(=O)N[C@H](C(=O)N1C(c2nc3ccc(-c4cc5ccc4CCc4ccc(c(-c6ccc7nc(C8C[C@@H]9CCCC[C@@H]9N8C(=O)[C@@H](NC(=O)OC)C(C)C)n(COC(=O)[C@@H](N)C(C)C)c7c6)c4)CC5)cc3n2COC(=O)[C@@H](N)C(C)C)C[C@@H]2CCCC[C@@H]21)C(C)C` (some centres unmarked) [Compound 130], the EC50 in test [1] came to 0.009 nM.
